Patent US11440913B2, “Aminoimidazopyridazines as kinase inhibitors” (BRISTOL-MYERS SQUIBB COMPANY, priority 2017, dated 2022)
Counter-ions that a name gives are not always drawn. Like-named read-outs stand apart in the source and are kept apart here.

Assays:
[1] = system: MLKL phosphorylation in HT29-L23 human colorectal adenocarcinoma cells; experiment: MLKL Phosphorylation High-Content Assay; assay type: cell-based; details: necroptosis induced with TNFα, SMAC mimetic and Z-VAD, 6 h, read-out: pMLKL (IC50)
Summary of the method: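 HT29-L23 cells pretreated 30 min at 37 °C with compound (6.25 to 0.106 μM final), then necroptosis induced with TNFα 35 ng/mL, SMAC mimetic 700 nM and Z-VAD 140 nM for 6 h. Fixed cells immunostained for MLKL pS358 and imaged; IC50 and Ymax from 4-parameter logistic fit.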

[2] = molecular target: His-GST-TVMV-hRIPK1(1-324) (Homo sapiens (Human), UniProt Q13546); experiment: RIPK1 HTRF Binding Assay; details: HTRF binding, 1 h at rt, read-out: RIPK1 (IC50)
His-GST-TVMV-hRIPK1(1-324), sequence (Q13546 1-324): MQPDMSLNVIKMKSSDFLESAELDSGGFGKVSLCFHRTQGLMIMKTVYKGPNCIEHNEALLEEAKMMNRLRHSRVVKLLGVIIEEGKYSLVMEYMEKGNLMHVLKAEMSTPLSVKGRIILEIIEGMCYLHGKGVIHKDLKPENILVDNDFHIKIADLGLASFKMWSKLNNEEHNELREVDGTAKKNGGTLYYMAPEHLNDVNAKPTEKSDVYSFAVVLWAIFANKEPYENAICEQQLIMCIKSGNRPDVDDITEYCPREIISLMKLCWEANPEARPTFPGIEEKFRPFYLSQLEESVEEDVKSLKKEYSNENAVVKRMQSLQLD
Summary of the method: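 HTRF probe-displacement binding: 1 nM His-GST-TVMV-hRIPK1(1-324) (baculovirus construct), 90.6 nM probe, 0.2 nM anti-GST-Tb in 20 mM HEPES, 10 mM MgCl2, 0.015% Brij-35, 4 mM DTT, 0.05 mg/mL BSA. Incubated 1 h at rt; FRET 520/495 nm ratio, inhibition relative to DMSO-only wells.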

SMILES | IC50 ([1]; TFA) | IC50 ([2]; TFA) | IC50 ([1]; Homo sapiens) | IC50 [2] | IC50 [1]
COc1nc(C)c(-c2ccc3nc(NC(C)=O)cn3n2)cc1C(=O)NC(C)c1cc(OC(F)(F)F)ccc1F (centres unmarked) [Example 279, 5-{2-acetamidoimidazo[1,2-b]pyridazin-6-yl}-N-{1-[2-fluoro-5-(trifluoromethoxy)phenyl]ethyl}-2-methoxy-6-methylpyridine-3-carboxamide, TFA] | 51 nM | 47 nM |  |  | 
CC(=O)Nc1cn2nc(-c3cnc(Cl)c(C(=O)NCC[C@H](O)c4ccc(Cl)cc4)c3)ccc2n1 [Example 267, 2-chloro-N-[(3S)-3-(4-chlorophenyl)-3-hydroxypropyl]-5-{2-acetamidoimidazo[1,2-b]pyridazin-6-yl}pyridine-3-carboxamide] |  |  | 383 nM | 81 nM | 
Cc1ncc(-c2ccc3nc(NC(=O)CO)cn3n2)cc1C(=O)N[C@H](C)c1cc(C(F)(F)F)ccc1F [Example 182, N-[(1R)-1-[2-fluoro-5-(trifluoromethyl)phenyl]ethyl]-5-[2-(2-hydroxyacetamido)imidazo [1,2-b]pyridazin-6-yl]-2-methylpyridine-3-carboxamide, TFA] |  |  | 455 nM | 272 nM | 
COc1nc(C)c(-c2ccc3nc(NC(C)=O)cn3n2)cc1C(=O)NCc1ccccc1OC(F)(F)F [Example 19, 5-{2-acetamidoimidazo[1,2-b]pyridazin-6-yl}-2-methoxy-6-methyl-N-{[2-(trifluoromethoxy)phenyl]methyl}pyridine-3-carboxamide] |  |  | 34 nM | 12 nM | 
COc1ncc(-c2ccc3nc(NC(C)=O)cn3n2)cc1C(=O)NC(C)c1ccccc1OC(F)(F)F (centres unmarked) [Example 137, 5-{2-acetamidoimidazo[1,2-b]pyridazin-6-yl}-2-methoxy-N-{1-[2-(trifluoro-methoxy)phenyl]ethyl}pyridine-3-carboxamide] |  |  | 14 nM | 7 nM | 
CC(=O)Nc1cn2nc(-c3cc(C(=O)NCc4cc(C(F)(F)F)ccc4F)cc(F)c3C)ccc2n1 [Example 372, 3-{2-acetamidoimidazo [1,2-b]pyridazin-6-yl}-5-fluoro-N-{[2-fluoro-5-(trifluoromethyl)phenyl]methyl}-4-methylbenzamide] |  |  | 122 nM | 13 nM | 
CC(=O)Nc1cn2nc(-c3cc(C(=O)N[C@@H](C)c4cc(OC(F)(F)F)ccc4F)cnc3C)ccc2n1 [Example 228, 5-{2-acetamidoimidazo[1,2-b]pyridazin-6-yl}-N-[(1S)-1-[2-fluoro-5-(trifluoromethoxy)phenyl]ethyl]-6-methylpyridine-3-carboxamide] |  |  | 193 nM | 16 nM | 
[2H]C([2H])([2H])Oc1ncc(-c2ccc3nc(NC(C)=O)cn3n2)cc1C(=O)NCc1cc(F)cc(F)c1OC1CCOCC1 [Example 50, N-{[3,5-difluoro-2-(oxan-4-yloxy)phenyl]methyl}-5-{2-acetamidoimidazo[1,2-b]pyridazin-6-yl}-2-(D3)methoxypyridine-3-carboxamide] |  |  | 2 nM | 2 nM | 
COc1ncc(-c2ccc3nc(NC(C)=O)cn3n2)cc1C(=O)NCc1cc(F)cc(F)c1OC1CCCOC1 (centres unmarked) [Example 99, N-{[3,5-difluoro-2-(oxan-3-yloxy)phenyl]methyl}-5-{2-acetamidoimidazo[1,2-b]pyridazin-6-yl}-2-methoxypyridme-3-carboxamide] |  |  |  | 6 nM | 24 nM
COc1ncc(-c2ccc3nc(NC(C)=O)cn3n2)cc1C(=O)NCc1cccc(C(F)(F)F)c1 [Example 110, 5-{2-acetamidoimidazo[1,2-b]pyridazin-6-yl}-2-methoxy-N-{[3-(trifluoromethyl)phen-yl](deutero)methyl}pyridine-3-carboxamide] |  |  |  | 27 nM | 113 nM
CC(=O)Nc1cn2nc(-c3cnc(Cl)c(C(=O)NCc4cc(C(F)(F)F)ccc4F)c3)ccc2n1 [Example 275, 2-chloro-5-{2-acetamidoimidazo[1,2-b]pyridazin-6-yl}-N-{[2-fluoro-5-(trifluoromethyl)phenyl]methyl}pyridine-3-carboxamide] |  |  |  | 32 nM | 52 nM
Cc1ncc(-c2ccc3nc(NC(=O)CN4CCCC4)cn3n2)cc1C(=O)N[C@H](C)c1cc(C(F)(F)F)ccc1F [Example 333, N-[(1R)-1-[2-fluoro-5-(trifluoromethyl)-phenyl]ethyl]-2-methyl-5-{2-[2-(pynolidin-1-yl)acetamido]imidazo[1,2-b]pyridazin-6-yl}pyridine-3-carboxamide] |  |  | 218 nM | 91 nM | 
COc1nc(C)c(-c2ccc3nc(NC(C)=O)cn3n2)cc1C(=O)NCc1cccc(F)c1OCC1CCC1 [Example 288, N-{[2-(cyclobutylmethoxy)-3-fluorophenyl]methyl}-5-{2-acetamidoimidazo[1,2-b]pyridazin-6-yl}-2-methoxy-6-methylpyridine-3-carboxamide] |  |  | 1 nM | 6 nM | 
COc1ncc(-c2ccc3nc(NC(C)=O)cn3n2)cc1C(=O)NCc1ccccc1OC(C)C [Example 165, 5-{2-acetamidoimidazo[1,2-b]pyridazin-6-yl}-2-methoxy-N-{[2-(propan-2-yloxy)phenyl]methyl}pyridine-3-carboxamide] |  |  | 11 nM | 4 nM | 
Cc1ncc(-c2ccc3nc(NC(=O)[C@H](C)O)cn3n2)cc1C(=O)N[C@H](C)c1cc(OC(F)(F)F)ccc1F [Example 339, N-((R)-1-(2-fluoro-5-(trifluoromethoxy)-phenyl)ethyl)-5-(2-((S)-2-hydroxypropanamido)-imidazo[1,2-b]pyridazin-6-yl)-2-methylnicotinamide] |  |  | 170 nM | 48 nM | 
COc1nc(C)c(-c2ccc3nc(NC(C)=O)cn3n2)cc1C(=O)NCc1cc(C(F)(F)F)ccc1F [Example 296, 5-{2-acetamidoimidazo[1,2-b]pyridazin-6-yl}-N-{[2-fluoro-5-(trifluoromethyl)phenyl]methyl}-2-methoxy-6-methylpyridine-3-carboxamide] |  |  | 20 nM | 10 nM | 
COc1nc(C)c(-c2ccc3nc(NC(C)=O)cn3n2)cc1C(=O)NCc1cccnc1OCC1CCCC1 [Example 313, N-{[2-(cyclopentylmethoxy)pyridin-3-yl]methyl}-5-{2-acetamidoimidazo[1,2-b]pyridazin-6-yl}-2-methoxy-6-methylpyridine-3-carboxamide] |  |  | 22 nM | 9 nM | 
COc1ncc(-c2ccc3nc(NC(C)=O)cn3n2)cc1C(=O)NCc1ccccc1COC(C)C [Example 114, 5-{2-acetamidoimidazo[1,2-b]pyridazin-6-yl}-2-methoxy-N-({2-[(propan-2-yloxy)methyl]phenyl}meth-yl)pyridine-3-carboxamide, TFA] |  |  |  | 8 nM | 33 nM
CC(=O)Nc1cn2nc(-c3cncc(C(=O)NCc4cc(OCC5CC5)ccc4F)c3)ccc2n1 [Example 236, N-{[5-(cyclopropylmethoxy)-2-fluorophenyl]methyl}-5-{2-acetamidoimidazo[1,2-b]pyridazin-6-yl}pyridine-3-carboxamide] |  |  | 180 nM | 95 nM | 
[2H]C([2H])(NC(=O)c1cc(-c2ccc3nc(NC(=O)CC)cn3n2)cnc1OC)c1cc(OC(F)(F)F)ccc1F [Example 244, N-{[2-fluoro-5-(trifluoromethoxy)phenyl](deutero)methyl}-2-methoxy-5-{2-propanamidoimidazo[1,2-b]pyridazin-6-yl}pyridine-3-carboxamide] |  |  | 4 nM | 257 nM | 
[2H]C([2H])(NC(=O)c1cc(-c2ccc3nc(NC(=O)CO)cn3n2)cnc1OC)c1cc(F)cc(F)c1OC1CCOCC1 [Example 2, N-{[3,5-difluoro-2-(oxan-4-yloxy)phenyl](D2)methyl}-5-[2-(2-hydroxyacetamido)imidazo[1,2-b]pyridazin-6-yl]-2-methoxypyridine-3-carboxamide] |  |  | 4 nM | 2 nM | 
CC(=O)Nc1cn2nc(-c3cc(C(=O)N[C@H](C)c4cc(OC(F)(F)F)ccc4F)c(Cl)cc3F)ccc2n1 [Example 392, 2-chloro-5-{2-acetamidoimidazo [1,2-b]pyridazin-6-yl}-4-fluoro-N-[(1R)-1-[2-fluoro-5-(trifluoromethoxy)phenyl]ethyl] benzamide] |  |  | 72 nM | 36 nM | 
[2H]C([2H])([2H])Oc1ncc(-c2ccc3nc(NC(C)=O)cn3n2)cc1C(=O)NC(C)c1ccccc1OC(F)(F)F (centres unmarked) [Example 57, 5-{2-acetamidoimidazo[1,2-b]pyridazin-6-yl}-2-(D3)methoxy-N-{1-[2-(trifluoromethoxy)phenyl]eth-yl}pyridine-3-carboxamide] |  |  |  | 10 nM | 25 nM
COc1cc(F)c(-c2ccc3nc(NC(C)=O)cn3n2)cc1C(=O)NCc1cc(F)ccc1C(=O)N1CCCC1(C)C [Example 419, N-{[2-(2,2-dimethylpyrrolidine-1-carbonyl)-5-fluorophenyl]methyl}-5-{2-acetamidoimidazo [1,2-b]pyridazin-6-yl}-4-fluoro-2-methoxybenzamide] |  |  | 28 nM | 4 nM | 
[2H]C([2H])([2H])[C@@H](NC(=O)c1c(OC)ccc(-c2ccc3nc(NC(C)=O)cn3n2)c1F)c1cc(OC(F)(F)F)ccc1F [Example 378, 3-{2-acetamidoimidazo [1,2-b]pyridazin-6-yl}-2-fluoro-N-[(1R)-1-[2-fluoro-5-(trifluoromethoxy)phenyl](2,2,2-Â^2Hâ,f)ethyl]-6-methoxybenzamide] |  |  | 1 nM | 6 nM | 
